pIC50: −log10 of the molar value. Where a name gives a salt, the structure may show the parent alone.
How the values were obtained:
DDR1 protein = biological target: T1, DDR1 protein (Homo sapiens, UniProt Q08345); experiment: Evaluation of DDR1 kinase inhibitory activity (LANCE Ultra TR-FRET); assay type: biochemical; conditions: DDR1 protein 0.5 nM, ATP 100 μM, 2 hours at room temperature; read-out: DDR-1 IC50
T1 construct: purchased Carna Biosciences 08-113
Method: The test was performed in duplicate.

[1] = biological target: T2, DDR1 kinase in DDR1-expressing U2OS cells (Homo sapiens, UniProt Q08345); experiment: DDR1 kinase inhibitory effect in DDR1-expressing U2OS cells (PathHunter, type I collagen stimulation); assay type: cell-based; conditions: type I collagen 50 μg/mL, 10% FBS, read-out: DDR-1 IC50
T2 construct: host or cells: U2OS
Method: Test compounds in DMSO were prepared at 10 mM and diluted with DMSO to final concentrations of 1000, 100, 10, 1, and 0.1 μM. These solutions were diluted further with E-MEM medium (Fujifilm Wako Pure Chemical Industries, 051-07615) containing 10% fetal bovine serum (FBS, Gibco, 10270106) to 60,000, 6,000, 600, 60, 6, and 0.6 nM to obtain test sample solutions.
DDR1-expressing U2OS cells (DiscoverX, 93-0894C3) suspended at 2.5×10^5 cells/mL in 10% FBS+E-MEM medium were seeded in 384-well plates (DiscoverX, 92-0013) in 20 μL portions and cultured overnight at 37° C. and 5% CO2.
The next day, the test sample solutions as prepared were added at 5 μL/well to final concentrations of 10,000, 1,000, 100, 10, 1, and 0.1 nM. After incubation at 37° C. and 5% CO2 for 1 hour, type I collagen (Nitta Gelatin, 631-00771) was added at 5 μL/well to a final concentration of 50 μg/mL, and cultured overnight at 37° C. and 5% CO2.
The next day, the plate was left at room temperature for 1 hour, after which 5 μL/well of detection solution was added according to the instruction manual for the PathHunter (registered trademark) Detection Kit (DiscoverX, 93-0001). […] The test was performed in duplicate.

[2] = test system: anti-glomerular basement membrane antibody-induced nephritis model; experiment: In vivo efficacy study using anti-glomerular basement membrane antibody-induced nephritis model; design: species or system WKY/NCrlCrlj rats; conditions: rat, 24-hour urine
Method: The test compound was weighed and suspended in 0.5% methylcellulose (Shin-Etsu Chemical Co., Ltd.)+99.5% Otsuka distilled water (Otsuka Pharmaceutical Factory) to prepare a test sample solution for administration. 300 μL of phosphate buffered saline (Wako, 045-29795) containing 33.3 μg/mL anti-glomerular basement membrane antibody (Chondrex, 70221) was intravenously administered into the tail vein of WKY/NCrlCrlj rats (7-week-old males). 7 days after, the test sample was administered twice a day for 7 days, and the rats were moved to a metabolism/urine collection cage from the 6th to 7th days of the starting of the administration, and the 24-hour urine was collected. The weight of the collected urine was measured. 150 μL of urine was transferred to a sample cup (650-M, BMBio ST). The albumin concentration in urine was measured using a JCA-BM6050 automatic analyzer (JEOL). The amount of albumin in urine was determined with correction for the measured urine weight. The amounts of albumin in urine in the group without administration of anti-glomerular basement membrane antibody and the group with administration of vehicle were set at 0% and 100%, respectively, and the ratio of the amount of albumin in urine in the group administered with the test compound was calculated.

[3] = dose 50 mg/kg twice a day for 7 days

T1 sequence (Q08345 19-876 isoform Q08345-2 limits assumed): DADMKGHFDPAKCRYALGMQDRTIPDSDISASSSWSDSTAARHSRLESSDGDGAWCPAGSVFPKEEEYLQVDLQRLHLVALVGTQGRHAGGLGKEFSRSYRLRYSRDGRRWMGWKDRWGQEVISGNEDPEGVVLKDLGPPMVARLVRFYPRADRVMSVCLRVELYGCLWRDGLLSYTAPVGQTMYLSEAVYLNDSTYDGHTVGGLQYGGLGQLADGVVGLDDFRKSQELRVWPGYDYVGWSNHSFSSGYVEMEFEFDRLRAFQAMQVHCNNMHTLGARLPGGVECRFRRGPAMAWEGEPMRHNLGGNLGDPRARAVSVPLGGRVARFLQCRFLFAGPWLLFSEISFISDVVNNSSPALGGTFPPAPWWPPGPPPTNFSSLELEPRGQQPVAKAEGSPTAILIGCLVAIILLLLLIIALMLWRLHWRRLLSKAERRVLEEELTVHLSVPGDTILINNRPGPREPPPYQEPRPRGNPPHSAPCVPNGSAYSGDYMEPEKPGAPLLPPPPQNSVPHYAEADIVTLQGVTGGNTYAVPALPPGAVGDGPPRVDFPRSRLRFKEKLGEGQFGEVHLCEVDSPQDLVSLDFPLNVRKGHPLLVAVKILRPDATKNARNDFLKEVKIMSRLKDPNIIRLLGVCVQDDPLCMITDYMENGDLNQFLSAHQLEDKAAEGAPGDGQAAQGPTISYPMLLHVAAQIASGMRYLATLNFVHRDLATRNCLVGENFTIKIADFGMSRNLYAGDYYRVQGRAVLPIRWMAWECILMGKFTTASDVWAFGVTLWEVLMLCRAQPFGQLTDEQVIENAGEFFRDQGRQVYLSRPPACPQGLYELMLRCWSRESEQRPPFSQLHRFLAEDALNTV
T2 sequence (Q08345 19-913): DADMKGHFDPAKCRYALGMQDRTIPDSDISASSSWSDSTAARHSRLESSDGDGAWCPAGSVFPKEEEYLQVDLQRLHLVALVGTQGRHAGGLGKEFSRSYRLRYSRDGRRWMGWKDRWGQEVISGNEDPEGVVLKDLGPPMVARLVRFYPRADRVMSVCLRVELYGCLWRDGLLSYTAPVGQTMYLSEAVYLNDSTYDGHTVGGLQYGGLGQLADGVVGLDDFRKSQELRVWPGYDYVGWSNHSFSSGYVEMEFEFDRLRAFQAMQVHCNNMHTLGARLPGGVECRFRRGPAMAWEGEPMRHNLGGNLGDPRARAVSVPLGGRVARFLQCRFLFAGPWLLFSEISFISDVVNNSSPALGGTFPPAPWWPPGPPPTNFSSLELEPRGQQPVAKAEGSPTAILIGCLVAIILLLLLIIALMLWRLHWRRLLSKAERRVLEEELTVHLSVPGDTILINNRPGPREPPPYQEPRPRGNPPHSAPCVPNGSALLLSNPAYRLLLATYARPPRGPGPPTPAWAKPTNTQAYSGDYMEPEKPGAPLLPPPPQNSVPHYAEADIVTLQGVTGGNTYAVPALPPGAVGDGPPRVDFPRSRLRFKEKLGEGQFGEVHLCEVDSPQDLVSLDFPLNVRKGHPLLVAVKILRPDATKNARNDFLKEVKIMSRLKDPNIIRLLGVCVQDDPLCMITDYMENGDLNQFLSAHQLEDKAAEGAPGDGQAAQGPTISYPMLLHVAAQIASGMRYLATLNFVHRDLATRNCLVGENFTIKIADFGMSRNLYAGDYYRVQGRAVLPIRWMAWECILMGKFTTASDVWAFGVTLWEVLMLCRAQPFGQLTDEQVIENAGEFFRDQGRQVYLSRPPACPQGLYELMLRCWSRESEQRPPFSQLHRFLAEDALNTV

pIC50 (DDR1 protein)	pIC50 [1]	SMILES	Urinary albumin (% of vehicle-administered group) [2, 3]	Urinary albumin (% of vehicle-administered group) ([2]; dose 25 mg/kg twice a day for 7 days)
8.15	7.54	O=C(N[C@H]1C[C@H](OC(F)(F)F)C[C@@H]1O)c1ccc(OC(F)F)c(C#Cc2cncnc2)c1 [Example 1, 4-(Difluoromethoxy)-N-[(1S,2S,4S)-2-hydroxy-4-(trifluoromethoxy)cyclopentyl]-3-[(pyrimidin-5-yl)ethynyl]benzamide]	70 % of vehicle-administered grou	–
9.07	8.44	Nc1ncc(C#Cc2cc(C(=O)N[C@H]3C[C@H](OC(F)(F)F)C[C@@H]3O)ccc2OC(F)F)cn1 [Example 3, 3-[2-(2-Aminopyrimidin-5-yl)ethynyl]-4-(difluoromethoxy)-N-[(1S,2S,4S)-2-hydroxy-4-(trifluoromethoxy)cyclopentyl]benzamide]	78 % of vehicle-administered grou	–
9.25	7.74	Nc1cnc(C#Cc2cc(C(=O)N[C@H]3C[C@H](OC(F)(F)F)C[C@@H]3O)ccc2OC(F)F)cn1 [Example 4, 3-[2-(5-Aminopyrazin-2-yl)ethynyl]-4-(difluoromethoxy)-N-[(1S,2S,4S)-2-hydroxy-4-(trifluoromethoxy)cyclopentyl]benzamide]	–	69 % of vehicle-administered grou
7.59	7.27	CCc1ccc(C(=O)N[C@H](CO)CCOC(F)(F)F)cc1NC(=O)c1cncc(-c2cccc(F)c2)c1 [Example 32, N-(2-Ethyl-5-{[(2S)-1-hydroxy-4-(trifluoromethoxy)butan-2-yl]carbamoyl}phenyl)-5-(3-fluorophenyl)pyridine-3-carboxamide]	–	–
8.74	8.13	CCc1ccc(C(=O)N[C@H]2C[C@H](OC(F)(F)F)C[C@@H]2O)cc1NC(=O)c1cncc(-c2cccc(F)c2)c1 [Example 33, N-(2-Ethyl-5-{[(1S,2S,4S)-2-hydroxy-4-(trifluoromethoxy)cyclopentyl]carbamoyl}phenyl)-5-(3-fluorophenyl)pyridine-3-carboxamide]	–	–
8.09	7.36	Nc1ncc(/C(F)=C/c2cc(C(=O)N[C@H](CO)c3cccc(F)c3)ccc2OC(F)F)cn1 [Example 34, 3-[(1Z)-2-(2-Aminopyrimidin-5-yl)-2-fluoroethenyl]-4-(difluoromethoxy)-N-[(1S)-1-(3-fluorophenyl)-2-hydroxyethyl]benzamide]	–	–
8.48	7.92	Nc1ncc(C#Cc2cc(C(=O)N[C@H](CO)Cc3ccc(Cl)cc3)ccc2OC(F)F)cn1 [Example 35, 3-[2-(2-Aminopyrimidin-5-yl)ethynyl]-N-[(2S)-1-(4-chlorophenyl)-3-hydroxypropan-2-yl]-4-(difluoromethoxy)benzamide hydrochloride]	–	–
8.07	6.64	Nc1ncc(C#Cc2cc(C(=O)N[C@H](CO)c3ccccc3)ccc2OC(F)F)cn1 [Example 36, 3-[2-(2-Aminopyrimidin-5-yl)ethynyl]-4-(difluoromethoxy)-N-[(1S)-2-hydroxy-1-phenylethyl]benzamide hydrochloride]	–	–
7.82	7.40	Nc1ncc(/C(F)=C/c2cc(C(=O)N[C@H]3CC(F)(F)CC[C@@H]3O)ccc2OC(F)F)cn1 [Example 37, 3-[(1Z)-2-(2-Aminopyrimidin-5-yl)-2-fluoroethenyl]-N-[(1S,2S)-5,5-difluoro-2-hydroxycyclohexyl]-4-(difluoromethoxy)benzamide]	–	–
7.92	7.00	Nc1ncc(/C(F)=C/c2cc(C(=O)N[C@H]3CCCC[C@@H]3O)ccc2OC(F)F)cn1 [Example 38, 3-[(1Z)-2-(2-Aminopyrimidin-5-yl)-2-fluoroethenyl]-4-(difluoromethoxy)-N-[(1S,2S)-2-hydroxycyclohexyl]benzamide]	–	–
9.41	8.41	Nc1ncc(/C=C(\F)c2cc(C(=O)N[C@H]3C[C@H](OC(F)(F)F)C[C@@H]3O)ccc2OC(F)F)cn1 [Example 39, 3-[(1Z)-2-(2-Aminopyrimidin-5-yl)-1-fluoroethenyl]-4-(difluoromethoxy)-N-[(1S,2S,4S)-2-hydroxy-4-(trifluoromethoxy)cyclopentyl]benzamide]	–	–
9.32	8.25	Nc1ncc(/C=C(\F)c2cc(C(=O)N[C@H]3CC4(CC4)C[C@@H]3O)ccc2OC(F)F)cn1 [Example 40, 3-[(1Z)-2-(2-Aminopyrimidin-5-yl)-1-fluoroethenyl]-4-(difluoromethoxy)-N-[(5S,6S)-6-hydroxyspiro[2.4]heptan-5-yl]benzamide]	–	–
7.22	6.46	NC(=O)c1ncc2cc(-c3cc(C(=O)N[C@H]4CC(F)(F)CC[C@@H]4O)cnc3C(F)(F)F)ccn12 [Example 41, 5-{3-Carbamoylimidazo[1,5-a]pyridin-7-yl}-N-[(1S,2S)-5,5-difluoro-2-hydroxycyclohexyl]-6-(trifluoromethyl)pyridine-3-carboxamide]	–	–
8.80	7.27	CCc1ccc(C(=O)N[C@H]2C[C@H](OC(F)(F)F)C[C@@H]2O)cc1NC(=O)c1cncc(OCC2CC2)c1 [Example 42, 5-(Cyclopropylmethoxy)-N-(2-ethyl-5-{[(1S,2S,4S)-2-hydroxy-4-(trifluoromethoxy)cyclopentyl]carbamoyl}phenyl)pyridine-3-carboxamide]	–	–
7.17	6.62	CCc1ccc(C(=O)N[C@H](CO)CCOC(F)(F)F)cc1NC(=O)c1cncc(OCC2CC2)c1 [Example 43, 5-(Cyclopropylmethoxy)-N-(2-ethyl-5-{[(2S)-1-hydroxy-4-(trifluoromethoxy)butan-2-yl]carbamoyl}phenyl)pyridine-3-carboxamide]	–	–
8.03	7.82	CCc1ccc(C(=O)N[C@H](CO)CCOC(F)(F)F)cc1NC(=O)c1cnc(NCC2CC2)s1 [Example 44, 2-[(Cyclopropylmethyl)amino]-N-(2-ethyl-5-{[(2S)-1-hydroxy-4-(trifluoromethoxy)butan-2-yl]carbamoyl}phenyl)-1,3-thiazole-5-carboxamide]	–	–
8.89	8.17	CCc1ccc(C(=O)N[C@H]2C[C@H](OC(F)(F)F)C[C@@H]2O)cc1NC(=O)c1cnc(NCC2CC2)s1 [Example 45, 2-[(Cyclopropylmethyl)amino]-N-(2-ethyl-5-{[(1S,2S,4S)-2-hydroxy-4-(trifluoromethoxy)cyclopentyl]carbamoyl}phenyl)-1,3-thiazole-5-carboxamide]	–	–
8.04	7.36	CCc1ccc(C(=O)N[C@H]2C[C@H](OC(F)(F)F)C[C@@H]2O)cc1NC(=O)c1cnc(C2CC2)s1 [Example 46, 2-Cyclopropyl-N-(2-ethyl-5-{[(1S,2S,4S)-2-hydroxy-4-(trifluoromethoxy)cyclopentyl]carbamoyl}phenyl)-1,3-thiazole-5-carboxamide]	–	–
7.29	7.23	CCc1ccc(C(=O)N[C@H](CO)CCOC(F)(F)F)cc1NC(=O)c1cnc(CC2CC2)s1 [Example 47, 2-(Cyclopropylmethyl)-N-(2-ethyl-5-{[(2S)-1-hydroxy-4-(trifluoromethoxy)butan-2-yl]carbamoyl}phenyl)-1,3-thiazole-5-carboxamide]	–	–

From patent US20260242343A1, “COMPOUND SERVING AS DDR1 KINASE INHIBITOR, AND MEDICINE” (NIPPON SHINYAKU CO., LTD., priority 2022, published 2026)
